# Like-named read-outs stand apart in the source and are kept apart here.
# Tests used:
# Human rhinovirus 1B [1] = test: Picornavirus assay: human rhinovirus 1B cytopathic effect in HeLa-OHIO cells, CellTiter-Glo readout; assay type: cell-based; settings: Rhinovirus A, 96 h, compound and virus added together, 4 d at 33° C.
# Protocol: (§1) HeLa-OHIO cells (Sigma-Aldrich, St. Louis, Mo.) were plated in 96 well plates at a density of 1.5×10^5 cells per well in assay media (MEM without phenol red or L-glutamine, supplemented with 1% FBS, 1% penicillin/streptomycin, 2 mM GlutaGro, and 1×MEM nonessential amino acids, all from Cellgro, Manassas, Va.). Assay setup took place after allowing cells to adhere for 24 h. Compounds dissolved in DMSO were serially diluted in assay media to 2× final concentration. Media was aspirated from the cells, and 1000 media with compound was added in triplicate. Human rhinovirus 1B (ATCC, Manassas, Va.) was diluted in assay media, and 100 μL was added to cells and compound. The virus inoculum was selected to cause 80-90% cytopathic effect in 4 d. Infected cells were incubated for 4 d at 33° C., 5% CO2. To develop the assay, 100 μL media was replaced with 100 μL CellTiter-Glo® reagent (Promega, Madison, Wis.), and incubated for 10 mins at RT. Luminescence was measured on a Victor X3 multi-label plate reader. Compounds of Formula (I) are active in this assay.
# Human rhinovirus 1B [2] = test: Picornavirus assay with 24 h compound pre-incubation before infection: human rhinovirus 1B in HeLa-OHIO cells, CellTiter-Glo readout; assay type: cell-based; settings: Rhinovirus A, HeLa-OHIO cells pre-incubated with compound for 24 h before infection, 4 d at 33° C.
# Protocol: as §1, with “100 μl” for “1000”, “triplicate. Cells were pre-incubated with the diluted compounds for 24 h before infection.” for “triplicate.”
# [3] = target: human rhinovirus 16 polymerase (HRV16pol) (Human rhinovirus 16, UniProt Q82122); test: Picornavirus polymerase inhibition assay: incorporation of tritiated NMP into acid-insoluble RNA products; assay type: biochemical
# Protocol: The enzyme activity of human rhinovirus 16 polymerase (HRV16pol) was measured as an incorporation of tritiated NMP into acid-insoluble RNA products. HRV16pol assay reactions contained 30 Nm recombinant enzyme, 50 Nm heteropolymeric RNA, about 0.5 μCi tritiated NTP, 0.1 Mm of competing cold NTP, 40 Mm Tris-HCl (Ph 7.0), 3 Mm dithiothreitol, and 0.5 Mm MgCl2. Standard reactions were incubated for 2.5 h at 30° C., in the presence of increasing concentration of inhibitor. At the end of the reaction, RNA was precipitated with 10% TCA, and acid-insoluble RNA products were filtered on a size exclusion 96-well plate. After washing of the plate, scintillation liquid was added and radiolabeled RNA products were detected according to standard procedures with a Trilux Microbeta scintillation counter. The compound concentration at which the enzyme-catalyzed rate was reduced by 50% (IC50) was calculated by fitting the data to a non-linear regression (sigmoidal).
# A value of ‘A’ in the table below indicates an IC50 of <5 μM, a value of 13′ indicates an IC50<20 μM, and a value of ‘C’ indicates an IC50 value of <100 μM.
# [4] = recombinant HRV16pol, 2.5 h at 30° C., mean of several independent experiments, read-out: IC50
# Sequence of human rhinovirus 16 polymerase (HRV16pol) (Q82122 1694-2153 limits assumed): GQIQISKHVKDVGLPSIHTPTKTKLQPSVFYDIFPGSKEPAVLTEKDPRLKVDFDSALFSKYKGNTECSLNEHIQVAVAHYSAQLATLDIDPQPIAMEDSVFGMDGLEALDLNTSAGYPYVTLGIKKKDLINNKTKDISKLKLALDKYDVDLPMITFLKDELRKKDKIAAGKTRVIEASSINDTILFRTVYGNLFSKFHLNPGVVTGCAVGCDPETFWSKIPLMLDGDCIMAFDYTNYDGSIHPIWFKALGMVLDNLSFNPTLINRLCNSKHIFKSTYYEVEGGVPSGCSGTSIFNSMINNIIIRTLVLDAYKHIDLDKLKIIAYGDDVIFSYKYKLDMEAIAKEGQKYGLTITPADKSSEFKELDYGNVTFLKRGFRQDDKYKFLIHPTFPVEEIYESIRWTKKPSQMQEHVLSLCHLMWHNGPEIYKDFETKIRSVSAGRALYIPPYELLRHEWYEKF
"IC50 [3, 4]",Structure (SMILES),other results
20 to 100 µM,Nc1ccn([C@@H]2O[C@](CBr)(COP(=O)(O)OP(=O)(O)OP(=O)(O)O)[C@@H](O)[C@@H]2F)c(=O)n1 [Compound 20],
5 to 20 µM,Nc1ccn([C@@H]2O[C@](CF)(COP(=O)(O)OP(=O)(O)OP(=O)(O)O)[C@@H](O)[C@@H]2CF)c(=O)n1 [Compound 50],
< 5 µM,C[C@@H]1[C@H](n2ccc(N)nc2=O)O[C@](CF)(COP(=O)(O)OP(=O)(O)OP(=O)(O)O)[C@H]1O [Compound 47],
< 5 µM,C#C[C@@H]1[C@H](n2ccc(N)nc2=O)O[C@](CF)(COP(=O)(O)OP(=O)(O)OP(=O)(O)O)[C@H]1O [Compound 48],
< 5 µM,Nc1ccn([C@H]2C[C@H](O)[C@](COP(=O)(O)OP(=O)(O)OP(=O)(O)O)(C(F)F)O2)c(=O)n1 [Compound 54],
< 5 µM,CC[C@]1(COP(=O)(O)OP(=O)(O)OP(=O)(O)O)O[C@@H](n2ccc(N)nc2=O)[C@@H](F)[C@@H]1O [Compound 24],
< 5 µM,Nc1ccn([C@@H]2O[C@@](COP(=O)(O)OP(=O)(O)OP(=O)(O)O)(C(F)F)[C@@H](O)[C@@H]2O)c(=O)n1 [Compound 52],

# Second part, the compound before the results:
Structure (SMILES),"IC50 [3, 4]",other results
Nc1ccn([C@@H]2O[C@@](CO)(CF)[C@@H](O)[C@@H]2F)c(=O)n1 [Compound 7],,EC50 (Human rhinovirus 1B [1]): < 1 µM
Nc1ccn([C@@H]2O[C@@](CO)(CF)[C@@H](O)[C@@H]2O)c(=O)n1 [Compound 45],,EC50 (Human rhinovirus 1B [2]): 1 to 10 µM
C=C[C@]1(CO)O[C@@H](n2ccc(N)nc2=O)[C@@H](F)[C@@H]1O [Compound 9],,EC50 (Human rhinovirus 1B [1]): < 1 µM
[N-]=[N+]=NC[C@]1(CO)O[C@@H](n2ccc(N)nc2=O)C[C@@H]1O [Compound 37],,EC50 (Human rhinovirus 1B [1]): < 1 µM
Nc1ccn([C@@H]2O[C@@](CO)(CF)[C@@H](O)[C@@H]2Cl)c(=O)n1 [Compound 2],,EC50 (Human rhinovirus 1B [1]): 1 to 10 µM
C[C@@H]1[C@H](n2ccc(N)nc2=O)O[C@@](CO)(CF)[C@H]1O [Compound 41],,EC50 (Human rhinovirus 1B [2]): 1 to 10 µM
C#C[C@]1(COP(=O)(O)OP(=O)(O)OP(=O)(O)O)O[C@@H](n2ccc(N)nc2=O)[C@@H](F)[C@@H]1O [Compound 22],5 to 20 µM,
Nc1ccn([C@@H]2O[C@](CF)(COP(=O)(O)OP(=O)(O)OP(=O)(O)O)[C@@H](O)[C@@H]2O)c(=O)n1 [Compound 53],< 5 µM,
O=c1ccn([C@@H]2O[C@](CCl)(COP(=O)(O)OP(=O)(O)OP(=O)(O)O)[C@@H](O)[C@@H]2F)c(=O)[nH]1 [Compound 19],< 5 µM,
Nc1ccn([C@@H]2O[C@](CF)(COP(=O)(O)OP(=O)(O)OP(=O)(O)O)[C@@H](O)[C@@H]2F)c(=O)n1 [Compound 21],,IC50 [3]: < 5 µM
C=C[C@]1(COP(=O)(O)OP(=O)(O)OP(=O)(O)O)O[C@@H](n2ccc(N)nc2=O)[C@@H](F)[C@@H]1O [Compound 23],< 5 µM,
[N-]=[N+]=NC[C@]1(COP(=O)(O)OP(=O)(O)OP(=O)(O)O)O[C@@H](n2ccc(N)nc2=O)[C@@H](F)[C@@H]1O [Compound 18],5 to 20 µM,
Nc1ccn([C@@H]2O[C@@](CO)(C(F)F)[C@@H](O)[C@@H]2O)c(=O)n1 [Compound 44],,EC50 (Human rhinovirus 1B [2]): 10 to 100 µM
Nc1ccn([C@@H]2O[C@@](CO)(CCl)[C@@H](O)[C@@H]2F)c(=O)n1 [Compound 3],,EC50 (Human rhinovirus 1B [1]): < 1 µM
CC[C@]1(CO)O[C@@H](n2ccc(N)nc2=O)[C@@H](F)[C@@H]1O [Compound 10],,EC50 (Human rhinovirus 1B [1]): 1 to 10 µM
Nc1ccn([C@@H]2O[C@](CF)(COP(=O)(O)OP(=O)(O)OP(=O)(O)O)[C@@H](O)[C@@H]2Cl)c(=O)n1 [Compound 16],20 to 100 µM,
[N-]=[N+]=NC[C@]1(CO)O[C@@H](n2ccc(N)nc2=O)[C@@H](F)[C@@H]1O [Compound 4],,EC50 (Human rhinovirus 1B [1]): < 1 µM

# — patent US9890188B2, “Substituted nucleosides, nucleotides and analogs thereof” (ALIOS BIOPHARMA, INC., priority 2014, dated 2018)
